Ends that are not written are not given here.
How the values were obtained:
Type in all cases: cell-based
OxR2 = target: T1, OxR2 (Homo sapiens, UniProt O43614); assay: BRET/eBRET beta-arrestin 2 recruitment to OxR2/Rluc or OxR2/Rluc8 without IG3 (pcDNA3); settings: OxR2/Rluc8 + barr2/Venus + pcDNA3; FIG. 18
T1 construct: expressed in transfected cells; host or cells: HEK293 (HEK293FT)
T1 sequence (O43614 1-444): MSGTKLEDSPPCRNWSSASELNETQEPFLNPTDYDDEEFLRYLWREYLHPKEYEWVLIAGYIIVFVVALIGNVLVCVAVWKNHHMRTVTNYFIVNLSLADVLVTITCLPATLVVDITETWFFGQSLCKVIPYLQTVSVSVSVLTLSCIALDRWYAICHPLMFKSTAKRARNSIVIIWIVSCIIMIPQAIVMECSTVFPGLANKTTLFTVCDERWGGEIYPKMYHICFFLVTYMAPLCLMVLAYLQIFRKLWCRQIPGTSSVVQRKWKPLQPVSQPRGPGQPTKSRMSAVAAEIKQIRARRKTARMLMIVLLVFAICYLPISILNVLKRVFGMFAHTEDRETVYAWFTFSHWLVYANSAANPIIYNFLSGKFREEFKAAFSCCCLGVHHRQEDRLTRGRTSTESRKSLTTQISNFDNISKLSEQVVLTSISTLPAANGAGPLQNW
Method: (§1) Briefly, referring to FIGS. 1 to 3, the IGs are provided in the form of the two receptors (TRHR and OxR). One of the two is attached to an RC (IG1-RC1, IG3). A second IG (IG2-RC2) is derived from a molecule that interacts with the receptors upon ligand binding (e.g. beta-arrestin, or a mutant thereof).
Cells were seeded in 6-well plates at a density of approximately 630,000 cells/well (HEK293FT) or approximately 150,000 cells/well (COS-7) and maintained at 37° C., 5% CO2 in Complete Media (DMEM containing 0.3 mg/ml glutamine, 100 IU/ml penicillin and 100 μg/ml streptomycin (Gibco)) supplemented with 10% fetal calf serum (FCS; Gibco). […] Filtered light emissions were sequentially measured for 3-5 s in each of the ‘donor wavelength window’ (400-475 nm) and ‘acceptor wavelength window’ (>500 nm for EGFP or 520-540 nm for EYFP, Topaz (TYFP) or Venus). […] In this case, data are shown as ‘fluorescence/luminescence’ being the ratio of light emission through the ‘acceptor wavelength window’ over the 400-475 nm emission for a particular cell sample. Unless otherwise stated, BRET signals were measured in 96-well microplates.
Referring now to FIG. 18, eBRET signals were measured from cells transiently co-expressing OxR2/Rluc8 and barr2/Venus either with HA-TRHR or pcDNA3.

[1] = system: thyrotropin releasing hormone receptor/orexin receptor hetero-dimer/-oligomer (TRHR with OxR1); assay: eBRET: TRHR/Rluc + barr2/Venus + OxR1 as IG3 in HEK293 cells; settings: TRHR/Rluc + barr2/Venus + OxR1; 10^−6M OxA; FIG. 6
Method: as §1
(§2) Cells were seeded in 6-well plates at a density of approximately 630,000 cells/well (HEK293FT) or approximately 150,000 cells/well (COS-7) and maintained at 37° C., 5% CO2 in Complete Media (DMEM containing 0.3 mg/ml glutamine, 100 IU/ml penicillin and 100 μg/ml streptomycin (Gibco)) supplemented with 10% fetal calf serum (FCS; Gibco). Transient transfections were carried out 24 h after seeding using GeneJuice (Novagen) or Metafectene (Biontex) according to manufacturer instructions. 24 h post-transfection, cells were washed with PBS, detached using 0.05% trypsin/0.53 mM EDTA, resuspended in HEPES-buffered phenol red free Complete Media containing 5% FCS and added to a poly-L-lysine-coated white microplate (Nunc). 48 h post-transfection, eBRET assays were carried out following pre-incubation of cells with EnduRen™ (Promega) at a final concentration of 30-40 μM, at 37° C., 5% CO2 for 2 h. For original BRET studies, the HEPES-buffered phenol red free Complete Media was replaced with PBS and coelenterazine h (Molecular Probes) added to a final concentration of 5 μM immediately prior to commencing the assay. […] Filtered light emissions were sequentially measured for 3-5 s in each of the ‘donor wavelength window’ (400-475 nm) and ‘acceptor wavelength window’ (>500 nm for EGFP or 520-540 nm for EYFP, Topaz (TYFP) or Venus). The BRET signal observed between interacting proteins is normalized by subtracting the background BRET ratio. […] In this case, data are shown as ‘fluorescence/luminescence’ being the ratio of light emission through the ‘acceptor wavelength window’ over the 400-475 nm emission for a particular cell sample. Unless otherwise stated, BRET signals were measured in 96-well microplates. […]

[2] = system: thyrotropin releasing hormone receptor/orexin receptor hetero-dimer/-oligomer (TRHR with OxR2); assay: eBRET/BRET detection of TRHR-OxR2 association: TRHR/Rluc + tagged beta-arrestin + OxR2 as IG3 in HEK293 cells
Method: as §1
as §2, with “In the following examples, the first calculation will be used, unless the signal is described as the ‘ligand-induced BRET ratio’. […] In” for “In”
Cells not pretreated with antagonist were pretreated with PBS instead for the same amount of time. […]

[3] = HEK293, TRHR/Rluc + barr2/Venus + OxR2, ligand 10^−6M, FIG. 4

Molecule	ligand-induced eBRET signal (OxR2)	eBRET signal [1]	eBRET signal [2, 3]	time for eBRET signal to reach its level [2, 3]	time for eBRET signal to reach plateau ([2]; TRHR/Rluc + HA-OxR2 + EGFP/barr1 or EGFP/barr2, FIG. 7)	time for eBRET signal to reach plateau ([2]; TRHR/Rluc + OxR2 + EGFP/barr1, FIG. 8)	time for eBRET signal to reach plateau ([2]; TRHR/Rluc + OxR2 + EGFP/barr1R169E, FIG. 8)	time for eBRET signal to reach plateau ([2]; TRHR/Rluc + OxR2 + EGFP/barr1 or EGFP/barr2, FIG. 5)	eBRET signal ([2]; TRHR/Rluc + barr2/Venus + OxR2, 10^−6M OxA, FIG. 6)	dose-response Hill slope ([2]; TRHR/Rluc + barr2/Venus + OxR2, FIG. 12)
NC(=O)[C@@H]1CCCN1C(=O)[C@H](Cc1cnc[nH]1)NC(=O)[C@@H]1CCC(=O)N1 [TRH, pGlu-His-Pro-NH2]	No ligand-induced eBRET signal was observed	–	–	–	–	–	–	–	–	–
OxA: orexin A; known orexin receptor modulator, used as IG3 ligand (modulator) (QPLPDCCRQKTCSCRLYELLHGAGNHAAGILTL; ends and bridges not checked; cysteine pairing not given here; UniProt O43612 34-66, looked up)	–	small eBRET signal	0.07-0.08	up to 30 minutes	more than 10 minutes	more than 10 minutes	≤ 20 min	more than 10 minutes	eBRET signal was observed	greater than 1

— US20100234417A1, “THYROTROPIN RELEASING HORMONE RECEPTOR-OREXIN RECEPTOR HETERO-DIMERS/-OLIGOMERS” (DIMERIX BIOSCIENCE PTY LTD., priority 2006, published 2010)
